Assay results taken from EP4745137A1 (Gluetacs Therapeutics (Shanghai) Co., Ltd., priority 2023, dated 2025).
pIC50: −log10 of the molar value.

Legend:
IKZF2 = molecular target: T1, IKZF2 (Homo sapiens, UniProt Q96SW2+Q9UKS7); assay: Western-blot assay of substrate protein degradation in hPBMCs, IKZF2; format: cell-based; settings: 24 hours of compound treatment
T1 construct: endogenous in cells; host or cells: hPBMCs (Milecell Biotechnologies)

NCI-H1975 = assay: Tumor cell proliferation inhibition (CellTiter-Meiluncell Luminescent Cell Viability Assay), NCI-H1975; settings: Homo sapiens, NCI-H1975, read-out: inhibitory activity (IC50, nM) against tumor cells proliferation, H1975
[1] = molecular target: T2, human Cereblon WT GST-tagged protein (Homo sapiens, UniProt Q96SW2); assay: CRBN-binding affinity by HTRF (CEREBLON BINDING kit); settings: HTRF inhibitory activity, CEREBLON BINDING kit; read-out: HTRF IC50
T2 construct: purchased CISBIO 64BDCRBNPEH

Jurkat = assay: Tumor cell proliferation inhibition (CellTiter-Meiluncell Luminescent Cell Viability Assay), Jurkat; settings: Homo sapiens, read-out: inhibitory activity (IC50, nM) against tumor cells proliferation, Jurkat
Method: The tumor cells used herein were cultured in a cell culture medium listed in table 2 at 37°C in an incubator with 5% CO2. Prior to experimentation, all cell lines used were correctly identified by STR profiling, and tested negative for mycoplasma contamination using a mycoplasma detection kit through routine screenings.
On the following day, the test compounds of the present disclosure were subjected to serial dilution. […] Subsequently, 0.5 µL of the test compound dilution was transferred into the 96-well plate containing the cells, with each well containing 100 µL of cell culture medium. […] Into the 96-well plate, the diluted test compounds and corresponding detection reagents were added, resulting in final test compound concentrations of 500 nM and 10 nM, respectively. The experimental procedure is described below using the diluted 2 µM test compound as an example.
After the cells were treated with the compounds of the present disclosure for a specified period (the treatment durations were shown in Table 3), the cell viability assay reagent was added to the culture medium according to the kit's instructions to determine cell viability. […] All controls were treated using the same procedure as the compounds of the present disclosure. The growth inhibition curves for the compounds of the present disclosure were plotted using Prism GraphPad software, and the IC50 values were calculated therefrom.

SR = assay: Tumor cell proliferation inhibition (CellTiter-Meiluncell Luminescent Cell Viability Assay), SR; settings: Homo sapiens, read-out: inhibitory activity (IC50, nM) against tumor cells proliferation, SR
CK1α = molecular target: T3, CK1α (Homo sapiens, UniProt P48729+Q96SW2); assay: Western-blot assay of substrate protein degradation in hPBMCs, CK1α; format: cell-based; settings: 24 hours of compound treatment
T3 construct: endogenous in cells; host or cells: hPBMCs (Milecell Biotechnologies)

IKZF3 = molecular target: T4, IKZF3 (Homo sapiens, UniProt Q96SW2+Q9UKT9); assay: Western-blot assay of substrate protein degradation in hPBMCs, IKZF3; format: cell-based; settings: 24 hours of compound treatment
T4 construct: endogenous in cells; host or cells: hPBMCs (Milecell Biotechnologies)

GSPT1 = molecular target: T5, GSPT1 (Homo sapiens, UniProt P15170+Q96SW2); assay: Western-blot assay of substrate protein degradation in hPBMCs, GSPT1; format: cell-based; settings: 24 hours of compound treatment
T5 construct: endogenous in cells; host or cells: hPBMCs (Milecell Biotechnologies)

MM.1S = assay: Tumor cell proliferation inhibition (CellTiter-Meiluncell Luminescent Cell Viability Assay), MM.1S; settings: Homo sapiens, MM1.S, read-out: inhibitory activity (IC50, nM) against tumor cells proliferation, MM.1S
WEE1 = molecular target: T6, WEE1 (Homo sapiens, UniProt P30291+Q96SW2); assay: Western-blot assay of substrate protein degradation in hPBMCs, WEE1; format: cell-based; settings: 24 hours of compound treatment
T6 construct: endogenous in cells; host or cells: hPBMCs (Milecell Biotechnologies)

IKZF1 = molecular target: T7, IKZF1 (Homo sapiens, UniProt Q13422+Q96SW2); assay: Western-blot assay of substrate protein degradation in hPBMCs, IKZF1; format: cell-based; settings: 24 hours of compound treatment
T7 construct: endogenous in cells; host or cells: hPBMCs (Milecell Biotechnologies)

[2] = system: Human acute T lymphocytic leukemia cells (Molt-4); assay: Tumor cell proliferation inhibition (CellTiter-Meiluncell Luminescent Cell Viability Assay), Molt-4; settings: MOLT-4, read-out: inhibitory activity (IC50, nM) against tumor cells proliferation, Molt-4
MV-4-11 = assay: Tumor cell proliferation inhibition (CellTiter-Meiluncell Luminescent Cell Viability Assay), MV-4-11; settings: Homo sapiens, MV4-11, read-out: inhibitory activity (IC50, nM) against tumor cells proliferation, MV-4-11
CCRF-CEM = assay: Tumor cell proliferation inhibition (CellTiter-Meiluncell Luminescent Cell Viability Assay), CCRF-CEM; settings: Homo sapiens, read-out: inhibitory activity (IC50, nM) against tumor cells proliferation, CCRF-CEM
[3] = compounds tested at 50 nM and 500 nM (concentration of the table not stated)
[4] = 50 nM and 500 nM tested (concentration behind the class not stated)

T7 sequence (Q13422 whole entry): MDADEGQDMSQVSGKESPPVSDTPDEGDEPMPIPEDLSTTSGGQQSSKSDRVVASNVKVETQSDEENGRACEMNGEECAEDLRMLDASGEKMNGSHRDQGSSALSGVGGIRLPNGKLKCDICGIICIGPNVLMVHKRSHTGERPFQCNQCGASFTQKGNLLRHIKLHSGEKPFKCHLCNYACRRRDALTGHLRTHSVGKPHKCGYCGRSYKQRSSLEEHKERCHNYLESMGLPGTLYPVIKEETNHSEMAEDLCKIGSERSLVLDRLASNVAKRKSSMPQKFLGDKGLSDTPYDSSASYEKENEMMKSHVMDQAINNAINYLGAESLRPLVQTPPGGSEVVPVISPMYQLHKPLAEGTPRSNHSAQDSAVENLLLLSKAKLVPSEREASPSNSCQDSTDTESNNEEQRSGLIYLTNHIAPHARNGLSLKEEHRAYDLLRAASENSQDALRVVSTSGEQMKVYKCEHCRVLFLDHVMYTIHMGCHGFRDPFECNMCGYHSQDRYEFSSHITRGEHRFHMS
T7 sequence (Q96SW2 whole entry): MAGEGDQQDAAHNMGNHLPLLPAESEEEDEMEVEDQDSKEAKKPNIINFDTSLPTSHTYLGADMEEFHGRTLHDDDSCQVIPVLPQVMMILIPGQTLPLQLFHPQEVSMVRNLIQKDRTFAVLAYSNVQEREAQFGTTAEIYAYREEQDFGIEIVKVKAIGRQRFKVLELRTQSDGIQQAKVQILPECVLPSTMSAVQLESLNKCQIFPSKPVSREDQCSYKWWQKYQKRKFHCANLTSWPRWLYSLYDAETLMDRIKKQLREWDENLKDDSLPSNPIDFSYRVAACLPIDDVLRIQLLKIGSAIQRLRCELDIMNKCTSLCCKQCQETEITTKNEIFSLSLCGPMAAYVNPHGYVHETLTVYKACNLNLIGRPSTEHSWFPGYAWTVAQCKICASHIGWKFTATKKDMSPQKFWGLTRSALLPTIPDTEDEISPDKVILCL
T7 sequence (Q16531 whole entry partner): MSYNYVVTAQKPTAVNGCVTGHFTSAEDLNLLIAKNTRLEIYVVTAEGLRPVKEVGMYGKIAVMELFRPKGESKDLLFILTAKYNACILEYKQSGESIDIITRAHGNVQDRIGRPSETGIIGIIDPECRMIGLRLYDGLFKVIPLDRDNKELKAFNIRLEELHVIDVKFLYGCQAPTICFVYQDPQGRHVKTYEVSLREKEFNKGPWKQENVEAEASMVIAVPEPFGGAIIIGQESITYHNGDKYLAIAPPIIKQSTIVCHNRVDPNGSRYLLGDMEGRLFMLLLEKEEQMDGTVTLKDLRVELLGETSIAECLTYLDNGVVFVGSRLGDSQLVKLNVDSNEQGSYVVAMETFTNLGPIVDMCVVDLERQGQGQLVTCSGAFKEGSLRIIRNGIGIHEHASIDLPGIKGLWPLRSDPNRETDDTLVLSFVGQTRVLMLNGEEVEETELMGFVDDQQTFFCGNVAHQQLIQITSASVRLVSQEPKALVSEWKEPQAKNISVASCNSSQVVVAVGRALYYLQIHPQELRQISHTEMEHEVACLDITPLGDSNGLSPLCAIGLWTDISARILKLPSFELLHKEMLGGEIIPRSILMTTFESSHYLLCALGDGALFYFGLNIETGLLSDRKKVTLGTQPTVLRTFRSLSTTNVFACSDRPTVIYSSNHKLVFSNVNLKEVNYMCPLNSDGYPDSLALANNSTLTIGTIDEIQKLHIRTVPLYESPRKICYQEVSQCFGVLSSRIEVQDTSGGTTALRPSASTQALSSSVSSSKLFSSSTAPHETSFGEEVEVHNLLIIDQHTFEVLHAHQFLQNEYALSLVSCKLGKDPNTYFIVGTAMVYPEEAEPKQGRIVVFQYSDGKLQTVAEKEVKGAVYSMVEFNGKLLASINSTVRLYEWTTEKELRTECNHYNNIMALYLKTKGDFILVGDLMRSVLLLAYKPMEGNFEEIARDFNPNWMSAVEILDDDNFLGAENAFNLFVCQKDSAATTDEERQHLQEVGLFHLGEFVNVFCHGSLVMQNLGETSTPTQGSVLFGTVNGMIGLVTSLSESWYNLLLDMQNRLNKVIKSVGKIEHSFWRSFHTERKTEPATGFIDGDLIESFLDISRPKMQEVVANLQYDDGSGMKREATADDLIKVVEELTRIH
T4 sequence (Q9UKT9 whole entry): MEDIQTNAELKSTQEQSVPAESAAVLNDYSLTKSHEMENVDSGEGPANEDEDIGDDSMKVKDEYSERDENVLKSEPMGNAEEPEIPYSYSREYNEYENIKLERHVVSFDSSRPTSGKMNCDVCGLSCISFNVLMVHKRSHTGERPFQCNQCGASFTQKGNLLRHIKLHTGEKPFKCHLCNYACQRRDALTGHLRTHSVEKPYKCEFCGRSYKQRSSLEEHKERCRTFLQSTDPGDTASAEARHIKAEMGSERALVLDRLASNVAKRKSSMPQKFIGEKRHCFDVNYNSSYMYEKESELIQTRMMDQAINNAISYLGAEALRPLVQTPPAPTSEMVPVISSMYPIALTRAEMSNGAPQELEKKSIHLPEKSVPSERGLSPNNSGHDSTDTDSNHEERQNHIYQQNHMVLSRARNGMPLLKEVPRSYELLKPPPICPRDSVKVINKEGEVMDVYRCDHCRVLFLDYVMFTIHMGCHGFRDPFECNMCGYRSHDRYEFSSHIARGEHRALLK
T4 sequence (Q96SW2 whole entry): as the sequence (Q96SW2 whole entry) above
T4 sequence (Q16531 whole entry partner): as the sequence (Q16531 whole entry partner) above
T3 sequence (P48729 whole entry): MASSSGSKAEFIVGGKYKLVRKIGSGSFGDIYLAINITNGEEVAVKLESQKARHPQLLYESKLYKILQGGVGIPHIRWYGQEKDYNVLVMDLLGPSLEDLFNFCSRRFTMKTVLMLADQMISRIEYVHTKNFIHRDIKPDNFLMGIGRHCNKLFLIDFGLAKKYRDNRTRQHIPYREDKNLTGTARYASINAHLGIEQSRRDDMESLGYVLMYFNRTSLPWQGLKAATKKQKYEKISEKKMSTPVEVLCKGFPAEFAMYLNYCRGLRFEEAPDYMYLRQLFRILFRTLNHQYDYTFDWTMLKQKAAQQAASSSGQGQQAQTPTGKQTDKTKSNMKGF
T3 sequence (Q96SW2 whole entry): as the sequence (Q96SW2 whole entry) above
T3 sequence (Q16531 whole entry partner): as the sequence (Q16531 whole entry partner) above
T2 sequence (Q96SW2 whole entry): as the sequence (Q96SW2 whole entry) above
T5 sequence (P15170 whole entry): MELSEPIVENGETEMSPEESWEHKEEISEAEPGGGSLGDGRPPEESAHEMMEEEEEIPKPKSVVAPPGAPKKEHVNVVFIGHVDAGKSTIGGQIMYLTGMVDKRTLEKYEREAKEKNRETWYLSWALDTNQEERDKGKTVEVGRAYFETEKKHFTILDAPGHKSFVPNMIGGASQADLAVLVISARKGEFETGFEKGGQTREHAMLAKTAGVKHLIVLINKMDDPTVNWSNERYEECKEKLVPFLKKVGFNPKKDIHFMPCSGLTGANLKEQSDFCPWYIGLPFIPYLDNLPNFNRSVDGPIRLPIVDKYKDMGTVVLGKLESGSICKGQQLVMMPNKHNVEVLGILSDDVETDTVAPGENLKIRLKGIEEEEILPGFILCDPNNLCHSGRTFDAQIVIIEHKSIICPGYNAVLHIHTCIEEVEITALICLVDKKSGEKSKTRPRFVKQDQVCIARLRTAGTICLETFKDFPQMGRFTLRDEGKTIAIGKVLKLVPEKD
T5 sequence (Q96SW2 whole entry): as the sequence (Q96SW2 whole entry) above
T5 sequence (Q16531 whole entry partner): as the sequence (Q16531 whole entry partner) above
T6 sequence (P30291 whole entry): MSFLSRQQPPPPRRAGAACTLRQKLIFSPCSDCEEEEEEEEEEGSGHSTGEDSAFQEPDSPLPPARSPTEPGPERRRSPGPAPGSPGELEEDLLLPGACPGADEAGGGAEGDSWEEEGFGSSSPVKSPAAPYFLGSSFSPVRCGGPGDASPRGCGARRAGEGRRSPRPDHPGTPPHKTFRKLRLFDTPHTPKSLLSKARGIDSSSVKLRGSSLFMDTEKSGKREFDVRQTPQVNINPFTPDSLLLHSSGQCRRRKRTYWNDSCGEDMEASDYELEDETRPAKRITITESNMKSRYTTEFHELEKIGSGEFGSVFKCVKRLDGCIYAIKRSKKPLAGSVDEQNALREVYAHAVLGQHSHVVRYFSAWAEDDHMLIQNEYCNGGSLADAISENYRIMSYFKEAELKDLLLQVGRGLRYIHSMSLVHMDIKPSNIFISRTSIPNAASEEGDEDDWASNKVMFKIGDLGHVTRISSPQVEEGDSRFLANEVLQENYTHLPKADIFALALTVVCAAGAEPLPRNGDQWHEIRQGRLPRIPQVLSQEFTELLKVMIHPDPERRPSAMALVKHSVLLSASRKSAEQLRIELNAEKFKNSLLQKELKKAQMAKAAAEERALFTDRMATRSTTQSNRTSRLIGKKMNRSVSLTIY
T6 sequence (Q96SW2 whole entry): as the sequence (Q96SW2 whole entry) above
T6 sequence (Q16531 whole entry partner): as the sequence (Q16531 whole entry partner) above

| IC50 (NCI-H1975) [nM] | pIC50 [1] | IC50 (SR) [nM] | IC50 (MM.1S) [nM] | SMILES | IKZF2 substrate protein remaining % (IKZF2; [3]) | IC50 (Jurkat) [nM] | CK1a substrate protein remaining % (CK1α; [3]) | IKZF3 substrate protein remaining % (IKZF3; [3]) | GSPT1 substrate protein remaining % (GSPT1; [3]) | Weel substrate protein remaining % (WEE1; [3]) | IKZF 1 substrate protein remaining % (IKZF1; [3]) | IC50 [2] [nM] | IKZF2 substrate protein remaining % (IKZF2; [4]) | IC50 (MV-4-11) [nM] | CK1a substrate protein remaining % (CK1α; [4]) | IC50 (CCRF-CEM) [nM] | IKZF3 substrate protein remaining % (IKZF3; [4]) | GSPT1 substrate protein remaining % (GSPT1; [4]) | Weel substrate protein remaining % (WEE1; [4]) | IKZF 1 substrate protein remaining % (IKZF1; [4]) |
| --- | --- | --- | --- | --- | --- | --- | --- | --- | --- | --- | --- | --- | --- | --- | --- | --- | --- | --- | --- | --- |
| 1 to 5 | > 6.30 | 10 to 50 | < 1 | CC(C)c1cc2c(C3=CCN(Cc4ccc5c(c4)CN(C4CCC(=O)NC4=O)C5=O)CC3)ncnc2s1 (centres unmarked) [GT-04935, 3-(5-((4-(6-isopropylthieno[2,3-d]pyrimidin-4-yl)-3,6-dihydropyridin-1(2H)-yl)methyl)-1-oxoisoindolin-2-yl)piperidine-2,6-dione] | A (0% ≤ substrate protein remaining % ≤ 80%) | 1 to 5 | A (0% ≤ substrate protein remaining % ≤ 80%) | A (0% ≤ substrate protein remaining % ≤ 80%) | A (0% ≤ substrate protein remaining % ≤ 80%) | A (0% ≤ substrate protein remaining % ≤ 80%) | A (0% ≤ substrate protein remaining % ≤ 80%) | – | – | – | – | – | – | – | – | – |
| 1 to 5 | 6.00 to 6.30 | 5 to 10 | < 1 | O=C1CCC(N2Cc3cc(CN4CC=C(c5ncnc6sc(-c7ccccc7)cc56)CC4)ccc3C2=O)C(=O)N1 (centres unmarked) [GT-05101, 3-(1-oxo-5-((4-(6-phenylthieno[2,3-d]pyrimidin-4-yl)-3,6-dihydropyridin-1(2H)-yl)methyl)isoindolin-2-yl)piperidine-2,6-dione] | A (0% ≤ substrate protein remaining % ≤ 80%) | 1 to 5 | B (80%< substrate protein remaining %≤ 100%) | A (0% ≤ substrate protein remaining % ≤ 80%) | A (0% ≤ substrate protein remaining % ≤ 80%) | A (0% ≤ substrate protein remaining % ≤ 80%) | A (0% ≤ substrate protein remaining % ≤ 80%) | – | – | – | – | – | – | – | – | – |
| – | 5.72 to 5.82 | – | 500 to 1000 | O=C1CCC(N2C(=O)c3ccc(CN4CCN(c5n[nH]c6cc(F)ccc56)CC4)cc3C2=O)C(=O)N1 (centres unmarked) [GT-06632, 2-(2,6-dioxopiperidin-3-yl)-5-((4-(6-fluoro-1H-indazol-3-yl)piperazin-1-yl)methyl)isoindoline-1,3-dione] | – | 100 to 500 | – | – | – | – | – | 100 to 500 | A (0% ≤ substrate protein remaining % ≤ 80%) | 10 to 50 | A (0% ≤ substrate protein remaining % ≤ 80%) | 50 to 100 | A (0% ≤ substrate protein remaining % ≤ 80%) | A (0% ≤ substrate protein remaining % ≤ 80%) | A (0% ≤ substrate protein remaining % ≤ 80%) | A (0% ≤ substrate protein remaining % ≤ 80%) |
| – | 5.72 to 5.82 | – | 100 to 500 | O=C1CCC(N2C(=O)c3ccc(CN4CC=C(c5ncnc6sc7c(c56)CCCC7)CC4)cc3C2=O)C(=O)N1 (centres unmarked) [GT-06680, 2-(2,6-dioxopiperidin-3-yl)-5-((4-(5,6,7,8-tetrahydrobenzo[4,5]thieno[2,3-d]pyrimidin-4-yl)-3,6-dihydropyridin-1(2H)-yl)methyl)isoindoline-1,3-dione] | – | – | – | – | – | – | – | 100 to 500 | A (0% ≤ substrate protein remaining % ≤ 80%) | 10 to 50 | B (80%< substrate protein remaining %≤ 100%) | 100 to 500 | A (0% ≤ substrate protein remaining % ≤ 80%) | A (0% ≤ substrate protein remaining % ≤ 80%) | A (0% ≤ substrate protein remaining % ≤ 80%) | A (0% ≤ substrate protein remaining % ≤ 80%) |
| – | – | – | 100 to 500 | Cc1ccc(Sc2ccccc2N2CCN(Cc3ccc4c(c3)C(=O)N(C3CCC(=O)NC3=O)C4=O)CC2)c(C)c1 (centres unmarked) [GT-06761, 5-((4-(2-((2,4-dimethylphenyl)thio)phenyl)piperazin-1-yl)methyl)-2-(2,6-dioxopiperidin-3-yl)isoindoline-1,3-dione] | – | – | – | – | – | – | – | 100 to 500 | A (0% ≤ substrate protein remaining % ≤ 80%) | 10 to 50 | A (0% ≤ substrate protein remaining % ≤ 80%) | 100 to 500 | A (0% ≤ substrate protein remaining % ≤ 80%) | A (0% ≤ substrate protein remaining % ≤ 80%) | A (0% ≤ substrate protein remaining % ≤ 80%) | A (0% ≤ substrate protein remaining % ≤ 80%) |

| SMILES | IC50 (NCI-H1975) [nM] | pIC50 [1] | IC50 (SR) [nM] | IC50 (MM.1S) [nM] | IKZF2 substrate protein remaining % (IKZF2; [3]) | IC50 (Jurkat) [nM] | CK1a substrate protein remaining % (CK1α; [3]) | IKZF3 substrate protein remaining % (IKZF3; [3]) | GSPT1 substrate protein remaining % (GSPT1; [3]) | Weel substrate protein remaining % (WEE1; [3]) | IKZF 1 substrate protein remaining % (IKZF1; [3]) | IC50 [2] [nM] | IKZF2 substrate protein remaining % (IKZF2; [4]) | IC50 (MV-4-11) [nM] | CK1a substrate protein remaining % (CK1α; [4]) | IC50 (CCRF-CEM) [nM] | IKZF3 substrate protein remaining % (IKZF3; [4]) | GSPT1 substrate protein remaining % (GSPT1; [4]) | Weel substrate protein remaining % (WEE1; [4]) | IKZF 1 substrate protein remaining % (IKZF1; [4]) |
| --- | --- | --- | --- | --- | --- | --- | --- | --- | --- | --- | --- | --- | --- | --- | --- | --- | --- | --- | --- | --- |
| O=C1CCC(N2C(=O)c3ccc(CN4CC=C(c5nccc(Cl)c5Cl)CC4)cc3C2=O)C(=O)N1 (centres unmarked) [GT-06608, 5-((3,4-dichloro-3',6'-dihydro-[2,4'-bipyridin]-1'(2'H)-yl)methyl)-2-(2,6-dioxopiperidin-3-yl)isoindoline-1,3-dione] | – | 5.82 to 6.00 | – | 100 to 500 | – | 100 to 500 | – | – | – | – | – | 100 to 500 | B (80%< substrate protein remaining %≤ 100%) | 10 to 50 | B (80%< substrate protein remaining %≤ 100%) | 100 to 500 | B (80%< substrate protein remaining %≤ 100%) | A (0% ≤ substrate protein remaining % ≤ 80%) | B (80%< substrate protein remaining %≤ 100%) | B (80%< substrate protein remaining %≤ 100%) |
| O=C1CCC(N2C(=O)c3ccc(CN4CCC(c5c[nH]c6cc(F)ccc56)CC4)cc3C2=O)C(=O)N1 (centres unmarked) [GT-06633, 2-(2,6-dioxopiperidin-3-yl)-5-((4-(6-fluoro-1H-indol-3-yl)piperidin-1-yl)methyl)isoindoline-1,3-dione] | – | – | – | 100 to 500 | – | 100 to 500 | – | – | – | – | – | 100 to 500 | A (0% ≤ substrate protein remaining % ≤ 80%) | 50 to 100 | A (0% ≤ substrate protein remaining % ≤ 80%) | 100 to 500 | A (0% ≤ substrate protein remaining % ≤ 80%) | A (0% ≤ substrate protein remaining % ≤ 80%) | A (0% ≤ substrate protein remaining % ≤ 80%) | A (0% ≤ substrate protein remaining % ≤ 80%) |
| Cn1cc(C2CCN(Cc3ccc4c(c3)C(=O)N(C3CCC(=O)NC3=O)C4=O)CC2)c2ccc(F)cc21 (centres unmarked) [GT-06635, 2-(2,6-dioxopiperidin-3-yl)-5-((4-(6-fluoro-1-methyl-1H-indol-3-yl)piperidin-1-yl)methyl)isoindoline-1,3-dione] | – | – | – | 100 to 500 | – | 100 to 500 | – | – | – | – | – | 50 to 100 | A (0% ≤ substrate protein remaining % ≤ 80%) | 10 to 50 | A (0% ≤ substrate protein remaining % ≤ 80%) | 50 to 100 | A (0% ≤ substrate protein remaining % ≤ 80%) | A (0% ≤ substrate protein remaining % ≤ 80%) | A (0% ≤ substrate protein remaining % ≤ 80%) | A (0% ≤ substrate protein remaining % ≤ 80%) |
